{
  "source": "paper PMC9396645",
  "about": "(Frontiers in Chemistry, 2022)",
  "key": {"[1]": {"tested_on": "prostate cancer patients", "experiment": "PSMA-PET/CT of prostate cancer patients", "format": "in vivo, human", "settings": "patient PET/CT, 20 nmol", "method": "Diagnostic PSMA-PET/computed tomography (CT) examinations were performed 1 and 3 h after antecubital injection of 339 MBq/20 nmol ^68Ga-CA028 or 295 MBq/20 nmol ^68Ga-CA030 per patient, respectively. The method for assessing the biodistribution was performed as previously described by Afshar-Oromieh et al. ([Afshar-Oromieh et al., 2015b]). Applying the clinical standard software Syngo (Siemens), which was used to define the VOIs in the PET images, the activity distributions of the source organs was determined. This reference ([Afshar-Oromieh et al., 2015b]) was also used as a standard of reference for ^68Ga-PSMA-617 (Table 3)."}, "[2]": {"tested_on": "C4-2 tumor bearing BALB/c nu/nu mice", "experiment": "Biodistribution (organ distribution) in C4-2 tumor-bearing mice", "format": "in vivo, mouse", "from_the_text": "(§1) Athymic male nude mice (BALB/c nu/nu) were purchased from Charles River at 4‒5 weeks of age (19–23 g). The mice were kept under pathogen-free conditions for 1 week prior to the study. The mice had free access to water and food and were housed with a 12-h/12-h light/dark cycle. The xenografts required for positron emission tomography (PET) imaging and biodistribution studies were obtained by inoculation of 5 × 10^7 C4-2 cells in 50% Matrigel in Opti-MEM I (1 ×) medium. For this purpose, the mice were anesthetized with 2% sevoflurane, and inoculation was performed subcutaneously on the right trunk. When the size of the tumor was approximately 1 cm^3, the studies were performed.\nBased on the results of the PET imaging, ^68Ga-CA028 and ^68Ga-CA030, the most promising compounds, were chosen for biodistribution studies in C4-2 tumor-bearing mice. The labeled compound (0.05 nmol, 20 MBq) was administered to the mice via tail vein injection. Animals were sacrificed and organs were harvested at the following time points: 20 min, 1, 2, and 4 h p.i. The organs were dissected and weighed, the activity was measured with a γ-counter, and the % ID/g was calculated."}, "[3]": {"tested_on": "C4-2 tumor bearing BALB/c nu/nu mice", "experiment": "Small-animal PET imaging in C4-2 tumor bearing mice", "format": "in vivo, mouse", "settings": "for mSUV Bladder / mSUV Heart / mSUV Kidneys / mSUV Liver / mSUV Muscle / mSUV Tumor: small-animal PET, C4-2 xenograft mouse", "from_the_text": "as §1\nFor small-animal PET imaging, the different ^68Ga-labeled PSMA ligands (0.5 nmol, 20 MBq in approximately 100 µL 0.9% saline) were injected into C4-2 tumor bearing mice. The dynamic PET was recorded in a small animal PET scanner (Siemens Inveon D-PET). The standardized uptake values (SUVs) were obtained from conventional (non-dynamic) PET images. The formula for the SUV was SUV=activity in ROI (Bq/ml) × animal weight (g)/injected dose(Bq)\nManual delineation of the respective appropriate whole organ (heart, kidneys, bladder, tumor, with an approximate volume of 100–500 µL) yielded the volumes of interest (VOIs). For this purpose, whole organs or parts of the organ/tissue (liver and muscle) were used. The images were reconstructed based on the procedure: OSEM 3D/SP MAP with 16 subsets, two iterations, and an image x-y size: 256, image z size: 161. The data were not modified with a post-processing filter. Analysis of the images and time-activity curves (TACs) was conducted on the Inveon™ Acquisition Workplace (IAW) from Siemens IRW 4.1. […] […] The mean SUVs were plotted over time in order to compare the different radiotracers."}, "[4]": {"tested_on": "C4-2 cells", "experiment": "Internalization efficiency / specific cell uptake in C4-2 cells", "format": "cell-based, human", "settings": "^68Ga-labeled compounds 30 nM, 45 min, 37°C, specificity by 2-PMPA 500 μM, mean ± SD (n = 3)"}},
  "data": [
    {"smiles": "O=C([O-])CN1CCN(CC(=O)[O-])CCN(Cc2ccc(C(=O)NCC3CCC(C(=O)NC(Cc4ccc5ccccc5c4)C(=O)NCCCCC(NC(=O)NC(CCC(=O)O)C(=O)O)C(=O)O)CC3)cc2)CCN(CC(=O)[O-])CC1.[68Ga+3]", "note": "(stereo not drawn) [^68Ga-CA028]", "values": [
      {"measurement": "SUV mean Bone metastasis", "setting": "[1]; first listed bone metastasis, 1 h p.i.", "value": 4.5},
      {"measurement": "SUV mean Bone metastasis", "setting": "[1]; first listed bone metastasis, 3 h p.i.", "value": 4.1},
      {"measurement": "SUV mean Lymph node", "setting": "[1]; first listed lymph node, 1 h p.i.", "value": 13.5},
      {"measurement": "SUV mean Lymph node", "setting": "[1]; first listed lymph node, 3 h p.i.", "value": 10.7},
      {"measurement": "SUV mean Blood pool, mediastinal", "setting": "[1]; 1 h p.i.", "value": 3.2},
      {"measurement": "SUV mean Colon", "setting": "[1]; 1 h p.i.", "value": 4.9},
      {"measurement": "SUV mean Gluteal muscle", "setting": "[1]; 1 h p.i.", "value": 0.7},
      {"measurement": "SUV mean Kidneys", "setting": "[1]; 1 h p.i.", "value": 13.8},
      {"measurement": "SUV mean Lacrimal gland", "setting": "[1]; 1 h p.i.", "value": 7.4},
      {"measurement": "SUV mean Liver", "setting": "[1]; 1 h p.i.", "value": 4.3},
      {"measurement": "SUV mean Lung metastasis", "setting": "[1]; 1 h p.i.", "value": 5.7},
      {"measurement": "SUV mean Nasal mucosa", "setting": "[1]; 1 h p.i.", "value": 2.9},
      {"measurement": "SUV mean Parotid gland", "setting": "[1]; 1 h p.i.", "value": 11.0},
      {"measurement": "SUV mean Proximal small intestine", "setting": "[1]; 1 h p.i.", "value": 8.4},
      {"measurement": "SUV mean Spleen", "setting": "[1]; 1 h p.i.", "value": 5.1},
      {"measurement": "SUV mean Sublingual gland", "setting": "[1]; 1 h p.i.", "value": 3.8},
      {"measurement": "SUV mean Submandibular gland", "setting": "[1]; 1 h p.i.", "value": 14.4},
      {"measurement": "SUV mean Blood pool, mediastinal", "setting": "[1]; 3 h p.i.", "value": 2.9},
      {"measurement": "SUV mean Colon", "setting": "[1]; 3 h p.i.", "value": 4.2},
      {"measurement": "SUV mean Gluteal muscle", "setting": "[1]; 3 h p.i.", "value": 0.4},
      {"measurement": "SUV mean Kidneys", "setting": "[1]; 3 h p.i.", "value": 10.9},
      {"measurement": "SUV mean Lacrimal gland", "setting": "[1]; 3 h p.i.", "value": 7.6},
      {"measurement": "SUV mean Liver", "setting": "[1]; 3 h p.i.", "value": 1.8},
      {"measurement": "SUV mean Lung metastasis", "setting": "[1]; 3 h p.i.", "value": 4.7},
      {"measurement": "SUV mean Nasal mucosa", "setting": "[1]; 3 h p.i.", "value": 3.5},
      {"measurement": "SUV mean Parotid gland", "setting": "[1]; 3 h p.i.", "value": 8.0},
      {"measurement": "SUV mean Proximal small intestine", "setting": "[1]; 3 h p.i.", "value": 10.4},
      {"measurement": "SUV mean Spleen", "setting": "[1]; 3 h p.i.", "value": 2.5},
      {"measurement": "SUV mean Sublingual gland", "setting": "[1]; 3 h p.i.", "value": 2.8},
      {"measurement": "SUV mean Submandibular gland", "setting": "[1]; 3 h p.i.", "value": 8.9},
      {"measurement": "SUV mean Bone metastasis", "setting": "[1]; second listed bone metastasis, 1 h p.i.", "value": 6.9},
      {"measurement": "SUV mean Bone metastasis", "setting": "[1]; second listed bone metastasis, 3 h p.i.", "value": 5.7},
      {"measurement": "SUV mean Lymph node", "setting": "[1]; second listed lymph node, 1 h p.i.", "value": 17.0},
      {"measurement": "SUV mean Lymph node", "setting": "[1]; second listed lymph node, 3 h p.i.", "value": 25.4},
      {"measurement": "SUV mean Bone metastasis", "setting": "[1]; third listed bone metastasis, 1 h p.i.", "value": 4.6},
      {"measurement": "SUV mean Bone metastasis", "setting": "[1]; third listed bone metastasis, 3 h p.i.", "value": 4.4},
      {"measurement": "SUV mean Lymph node", "setting": "[1]; third listed lymph node, 1 h p.i.", "value": 5.0},
      {"measurement": "SUV mean Lymph node", "setting": "[1]; third listed lymph node, 3 h p.i.", "value": 4.1},
      {"measurement": "tumor uptake", "setting": "[2]; C4-2 tumor, 20 min after injection, 0.05 nmol, 20 MBq", "value": "12.53 ± 0.45", "unit": "%ID/g"},
      {"measurement": "tumor uptake with blockade", "setting": "[2]; C4-2 tumor, 1 h p.i., co-injection of non-labeled PSMA-617 2 mg/kg", "value": "1.31 ± 0.34", "unit": "%ID/g"},
      {"measurement": "kidney uptake", "setting": "[2]; kidneys, 1 h p.i., 0.05 nmol, 20 MBq", "value": "15.58 ± 2.79", "unit": "%ID/g"},
      {"measurement": "kidney uptake with blockade", "setting": "[2]; kidneys, 1 h p.i., co-injection of non-labeled PSMA-617 2 mg/kg", "value": "2.37 ± 0.52", "unit": "%ID/g"},
      {"measurement": "mSUV Bladder", "setting": "[3]; 1 h", "value": 6.50},
      {"measurement": "mSUV Heart", "setting": "[3]; 1 h", "value": 0.36},
      {"measurement": "mSUV Kidneys", "setting": "[3]; 1 h", "value": 0.39},
      {"measurement": "mSUV Liver", "setting": "[3]; 1 h", "value": 0.22},
      {"measurement": "mSUV Muscle", "setting": "[3]; 1 h", "value": 0.13},
      {"measurement": "mSUV Tumor", "setting": "[3]; 1 h", "value": 0.81},
      {"measurement": "mSUV Bladder", "setting": "[3]; 2 h", "value": 2.5},
      {"measurement": "mSUV Heart", "setting": "[3]; 2 h", "value": 0.13},
      {"measurement": "mSUV Kidneys", "setting": "[3]; 2 h", "value": 0.29},
      {"measurement": "mSUV Liver", "setting": "[3]; 2 h", "value": 0.09},
      {"measurement": "mSUV Muscle", "setting": "[3]; 2 h", "value": 0.05},
      {"measurement": "mSUV Tumor", "setting": "[3]; 2 h", "value": 0.78},
      {"measurement": "tumor-to-kidney ratio", "setting": "[3]; mean SUV body weight from dynamic PET, 1 h p.i.", "value": 2.08},
      {"measurement": "tumor-to-kidney ratio", "setting": "[3]; mean SUV from PET, 2 h p.i.", "value": 2.69},
      {"measurement": "Specific lysate (internalization)", "setting": "[4]", "value": "41.2 ± 2.7", "unit": "%IA/10^6 cells"}
    ]}
  ]
}
